pIC50: −log10 of the molar value. Active and inactive are the calls of the source.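 How the source made its calls: active means IC50 at or below a set limit above the highest tested dose; inconclusive means flat curve with 30 to 70% inhibition, or poor fit; inactive means the rest.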

For this assay, the target named is Glycogen synthase kinase-3 beta (Homo sapiens) (UniProt P49841). Nature of the assay: concentration-response blocking of human GSK3B – biochemical, luminescence, cell-free homogeneous, retest, dose response (AID 434954). Conditions: recombinant GSK3beta, ADP-Glo luminescence, 60 min.
Sequence of Glycogen synthase kinase-3 beta (Homo sapiens) (P49841 whole entry, looked up): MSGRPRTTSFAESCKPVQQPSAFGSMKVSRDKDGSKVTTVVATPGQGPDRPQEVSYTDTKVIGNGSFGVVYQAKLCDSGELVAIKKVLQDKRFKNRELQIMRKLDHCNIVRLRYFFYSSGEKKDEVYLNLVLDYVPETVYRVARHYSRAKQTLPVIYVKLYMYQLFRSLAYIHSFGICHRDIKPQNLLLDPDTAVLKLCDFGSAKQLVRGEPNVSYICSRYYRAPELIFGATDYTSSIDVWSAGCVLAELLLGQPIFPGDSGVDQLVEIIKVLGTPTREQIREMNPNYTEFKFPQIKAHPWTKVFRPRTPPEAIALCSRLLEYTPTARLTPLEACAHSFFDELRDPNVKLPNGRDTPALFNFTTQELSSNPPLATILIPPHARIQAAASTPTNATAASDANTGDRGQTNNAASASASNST
Broadly, the pIC50 is −log10 of the IC50, conventionally taken in molar units. Regarding `CCCC1=C(C(=O)OCC)C(c2ccco2)n2ncnc2N1` (stereo not drawn), the negative logarithm of the IC50 (pIC50) is 4.76.

Consider `Cc1c(C#N)c(O)[nH]c(=O)c1N=Nc1ccc(S(N)(=O)=O)cc1`, for which the negative-log IC50 (pIC50) is 6.04. The term IC50 denotes the concentration needed to halve the response being measured. For `CCOc1ccc(/C=N/Nc2ccccn2)cc1OC`, the IC50 was > 30 µM (inactive). For `CC1(C)CC(=O)C2=C(C1)Nc1ccccc1NC2c1cccs1` (stereo not drawn), the IC50 was > 30 µM (inactive). For the compound `Nc1nc(F)nc2c1ncn2[C@@H]1O[C@H](CO)[C@@H](O)[C@@H]1O`, the IC50 is > 30 µM (inactive). Take `Cc1ccccc1CSc1nc2n(n1)C(c1cccs1)C1=C(CCCC1=O)N2` (stereo not drawn): the IC50 was > 30 µM (inactive). In the case of `COc1ccc(C2C(C#N)=C(C)NC3=C2C(=O)CC(C)(C)C3)cc1` (stereo not drawn), the IC50 was > 30 µM (inactive). Take `Cc1[nH]nc2c1C(c1ccc(F)cc1)C1=C(CC(C)(C)CC1=O)N2` (stereo not drawn): the pIC50 was 5.41.

Regarding `COc1cc(/C=N\Nc2ccc([N+](=O)[O-])cc2)ccc1OCC(=O)Nc1ccc(C)c(C)c1`, the IC50 is > 30 µM (inactive).

As to `CCCCOC(=O)C1=C(C)Nc2ncnn2C1c1cccc(OC)c1OC` (stereo not drawn), the pIC50 was 5.37. With `COc1cccc(C2C3=C(CC(C)(C)CC3=O)Nc3cc4c(cc32)OCO4)c1` (stereo not drawn), the IC50 was > 30 µM (inactive). For `O=C1CCCC2=C1C(c1cccs1)Nc1ccccc1N2` (stereo not drawn), the IC50 was > 30 µM (inactive). Regarding `CN=C(C)/C(C(=O)OC)=C(/O)c1ccc(Cl)cc1Cl`, the IC50 is > 30 µM (inactive).

For `CCOC(=O)C1=C(C)Nc2ncnn2C1c1ccc2c(c1)OCO2` (stereo not drawn), the IC50 was > 30 µM (inactive). `COc1ccc(/C=N/Nc2ccc([N+](=O)[O-])cc2)cc1O`: the IC50 was > 30 µM (inactive). For `CC(C)n1c(O)c(C=NCc2cccnc2)c(=O)[nH]c1=S`, the IC50 is > 30 µM (inactive). For `Cc1cc(-c2[nH]nc3c2C(c2cccc(O)c2)C(C#N)=C(N)O3)c(C)s1` (stereo not drawn), the pIC50 is 4.59. Turning to `N#Cc1c(N)nc2c3c(sc(=N)c2c1N)NC(=O)CC3c1ccccc1` (stereo not drawn), the IC50 is > 30 µM (inactive). Take `O=C(O)c1ccc(/C=N/Nc2ccc(C(F)(F)F)cn2)cc1`: the pIC50 is 4.69. In the case of `C=CCOC(=O)C1=C(C)Nc2ncnn2C1c1cccs1` (stereo not drawn), the IC50 was > 30 µM (inactive). On the same count and under the same terms, as for `CSc1nc2c(c(=O)[nH]1)C(c1cccs1)C1=C(CCCC1=O)N2` (stereo not drawn), the figure is > 30 µM (inactive); as for `CC1(C)CC(=O)C2=C(C1)Nc1[nH]c(=S)[nH]c(=O)c1C2c1ccccc1` (stereo not drawn), > 30 µM (inactive).

With `CC[n+]1c(/C=C/Nc2ccccc2)sc2ccccc21`, the IC50 is > 30 µM (inactive). Turning to `CCc1ccc(C2NC(=S)NC3=C2C(=O)CC(C)(C)C3)cc1` (stereo not drawn), the IC50 is > 30 µM (inactive). Turning to `COc1ccc(OC)c(C2Nc3ccccc3NC3=C2C(=O)CC(C)(C)C3)c1` (stereo not drawn), the IC50 was > 30 µM (inactive). Regarding `Cc1c(C(=O)O)cccc1-n1c(C)cc(/C=N/Nc2ccc([N+](=O)[O-])cn2)c1C`, the pIC50 was 4.67. For the compound `COc1ccc(-c2nn(-c3ccccc3)cc2/C=N/N2C(=O)CSC2=S)cc1`, the IC50 was > 30 µM (inactive). Consider `CC1=C(C(=O)OCC2CCCO2)C(c2ccc(O)cc2)NC(=O)N1` (stereo not drawn), for which the IC50 is > 30 µM (inactive). Take `Nc1ncnc2c1ncn2C1OC(COP(=O)(O)O)C(O)C1O` (stereo not drawn): the IC50 was > 30 µM (inactive). In the case of `CCOC(=O)C1=C(C)Nc2ncnn2C1c1ccc(N(C)C)cc1` (stereo not drawn), the IC50 was > 30 µM (inactive). As to `Oc1ccc(/C=N/Nc2ccc(C(F)(F)F)cn2)cc1O`, the pIC50 was 4.79. `O=[N+]([O-])c1ccc2[nH]c(O)c(N=NC3CS(=O)(=O)CC3O)c2c1` (stereo not drawn): the pIC50 was 4.64. Consider `C(=N\Nc1ncnc2nc[nH]c12)/c1cccs1`, for which the negative-log IC50 (pIC50) is 4.71. As to `Nc1ncnc2c1ncn2[C@@H]1O[C@H](CO)[C@@H](O)[C@H]1O`, the IC50 is > 30 µM (inactive). As for `Cc1nn(-c2ccccn2)c2c1C(c1ccsc1)C1=C(CCCC1=O)N2` (stereo not drawn), the IC50 was > 30 µM (inactive). As to `COc1ccc(-c2nn(CCC#N)cc2/C=N/O)cc1OC`, the IC50 was > 30 µM (inactive). In the case of `O=C(O)c1ccccc1N/N=C\c1ccnc2ccccc12`, the IC50 is > 30 µM (inactive).

For `Nc1ncnc2c1ncn2[C@@H]1O[C@H](CO)[C@@H](O)[C@@H]1O`, the IC50 is > 30 µM (inactive). Regarding `CC1=C(C(=O)OCC2CCCO2)C(c2ccsc2)C2=C(CC(C)(C)CC2=O)N1` (stereo not drawn), the IC50 is > 30 µM (inactive). On to `Cc1ccc(C2C3=C(CC(C)(C)CC3=O)Nc3n[nH]c(C)c32)cc1` (stereo not drawn), for which the negative logarithm of the IC50 (pIC50) is 5.03. With `CCCCCCn1c(O)c(C=NCCCn2ccnc2)c(=O)[nH]c1=O`, the negative logarithm of the IC50 (pIC50) was 4.84.

Take `CCc1ccc(/C=N/Nc2ncnc3nc[nH]c23)cc1`: the negative-log IC50 (pIC50) was 4.58. Turning to `CCN(CC)S(=O)(=O)c1cccc(N2CC(O)=C(c3ccccc3)C2=N)c1`, the IC50 was > 30 µM (inactive). For the compound `O=C(CC1SC(N2CCCCC2)=NC1=O)Nc1cccc(C(F)(F)F)c1` (stereo not drawn), the IC50 was > 30 µM (inactive).

`CC1=C(C#N)C(c2ccc(O)cc2)C2=C(CC(C)(C)CC2=O)N1` (stereo not drawn): the IC50 is > 30 µM (inactive).

As for `COc1cccc(C2C3=C(CC(C)(C)CC3=O)Nc3n[nH]c(C)c32)c1` (stereo not drawn), the pIC50 was 6.02. On to `COc1cccc(C2C(C(=O)OCc3ccccc3)=C(C)Nc3ncnn32)c1OC` (stereo not drawn), for which the pIC50 is 5.42. For the compound `Cc1ccsc1/C=N/Nc1ncnc2nc[nH]c12`, the pIC50 is 5.05. Regarding `COc1cccc(C2C3=C(CCCC3=O)Nc3[nH]n(-c4ccccc4)c(=O)c32)c1` (stereo not drawn), the IC50 was > 30 µM (inactive). With `N#CCCn1cc(/C=N/O)c(-c2ccc(-c3ccccc3)cc2)n1`, the IC50 is > 30 µM (inactive).

As for `COc1ccc(COC(=O)C2=C(C)NC(=O)NC2c2ccc(O)c(OC)c2)cc1` (stereo not drawn), the IC50 is > 30 µM (inactive).

As for `COc1cc(/C=N/Nc2ccc(C(F)(F)F)cn2)ccc1O`, the pIC50 was 5.00. For `O=C(O)c1cccc(-c2ccc(/C=N/Nc3ccc([N+](=O)[O-])cc3)o2)c1`, the IC50 was > 30 µM (inactive).

For the compound `COc1cc(/C=N/Nc2ccc([N+](=O)[O-])cn2)cc(OC)c1O`, the pIC50 is 5.27. For the compound `Nc1ncnc2c1ncn2[C@@H]1O[C@H](COP(=O)(O)O)[C@@H](O)[C@H]1O`, the IC50 was > 30 µM (inactive). On the same count and under the same terms, then `CCOC(=O)C1=C(C)Nc2ncnn2C1c1ccccc1F` (stereo not drawn), with > 30 µM (inactive); and `Cc1c(C=Nc2ccc(S(=O)(=O)N(C)C)cc2)c(O)[nH]c(=O)c1C#N`, with > 30 µM (inactive). `Fc1cccc(/C=N/Nc2ncnc3nc[nH]c23)c1`: the pIC50 is 4.93. As for `CCOc1cc(C2C3=C(CC(C)(C)CC3=O)Nc3n[nH]c(C)c32)ccc1O` (stereo not drawn), the negative-log IC50 (pIC50) was 5.48. Turning to `COc1cc(-c2[nH]nc3c2C(c2ccco2)C(C#N)=C(N)O3)cc(OC)c1OC` (stereo not drawn), the pIC50 was 5.07. As for `O=C(O)c1cc(N/N=C/c2ccc(-c3ccc(F)cc3)o2)ccc1Cl`, the IC50 is > 30 µM (inactive). Consider `COc1ccc(C2CC(=O)C3=C(C2)Nc2ncnn2C3c2ccccc2C)cc1` (stereo not drawn), for which the IC50 was > 30 µM (inactive). Consider `Cc1[nH]nc2c1C(c1ccc(N(C)C)cc1)C1=C(CC(C)(C)CC1=O)N2` (stereo not drawn), for which the negative logarithm of the IC50 (pIC50) was 4.55. For `C(=N\Nc1nccc(-c2cccnc2)n1)/c1ccccc1`, the negative-log IC50 (pIC50) is 4.77. In the case of `Cc1cccc(N=Nc2c(C)c(C#N)c(O)[nH]c2=O)c1`, the negative-log IC50 (pIC50) was 6.11. Take `O=C(O)Cn1cc(/C=N/Nc2ccc([N+](=O)[O-])cn2)c2ccccc21`: the negative-log IC50 (pIC50) is 5.08. Consider `CC1(C)CC(=O)C2=C(C1)NC1=C(C(=O)c3ccccc31)C2c1ccc(O)cc1` (stereo not drawn), for which the IC50 was > 30 µM (inactive).

Take `CCCC1=C(C(=O)OCC)C(c2cccs2)n2ncnc2N1` (stereo not drawn): the pIC50 is 4.64. Regarding `O=C(N/N=C/c1ccc(O)c(O)c1)N/N=C/c1ccc(O)c(O)c1`, the negative logarithm of the IC50 (pIC50) is 4.88. Turning to `Nc1nc(F)nc2c1ncn2[C@@H]1O[C@H](CO)[C@@H](O)[C@H]1O`, the IC50 was > 30 µM (inactive). Same read-out and setting: then `Cc1noc2c1C(c1ccc(N(C)C)cc1)C1=C(CC(C)(C)CC1=O)N2` (stereo not drawn), with > 30 µM (inactive); and `CCN(CC)CCN1C(=O)C(=O)/C(=C(/O)c2ccc(S(=O)(=O)N3CCOCC3)cc2)C1c1ccccc1` (stereo not drawn), with > 30 µM (inactive).

As to `COc1ccc(C2C3=C(CC(C)(C)CC3=O)Nc3n[nH]c(C)c32)cc1` (stereo not drawn), the pIC50 is 4.55. Consider `NS(=O)(=O)c1ccc(N=Nc2c(O)[nH]c3ccc(Br)cc23)cc1`, for which the IC50 is > 30 µM (inactive). For the compound `O=C(O)CC1S/C(=N/N=C/c2ccc(-c3ccc(Cl)c([N+](=O)[O-])c3)o2)NC1=O` (stereo not drawn), the IC50 is > 30 µM (inactive). With `CSc1nsc(/C=C/Nc2ccc(Cl)cc2)c1C#N`, the IC50 was > 30 µM (inactive).

Take `CSc1nc2n(n1)C(c1cccs1)C1=C(CCCC1=O)N2` (stereo not drawn): the IC50 was > 30 µM (inactive). Consider `Oc1ccc(/C=N/Nc2ncc(Br)cn2)c(O)c1`, for which the negative-log IC50 (pIC50) was 4.91. For the compound `CCOC(=O)C1=C(CN2CCSCC2)NC(=O)NC1c1cc(C)ccc1C` (stereo not drawn), the IC50 is > 30 µM (inactive).

On to `Cc1ccc(-c2nn(-c3ccccc3)cc2/C=N/O)cc1`, for which the pIC50 was 6.25.

As for `COCCOC(=O)C1=C(C)Nc2ncnn2C1c1ccccc1` (stereo not drawn), the IC50 was > 30 µM (inactive). As for `CCOc1ccc(N2C(=O)C(Cl)=C(Nc3ccccc3O)C2=O)cc1`, the IC50 is > 30 µM (inactive). With `Cc1[nH]nc2c1C(c1cccc(O)c1)C1=C(CC(C)(C)CC1=O)N2` (stereo not drawn), the pIC50 was 6.38.

For the origin of these results see PubChem BioAssay AID434954 (Broad Institute, 2010).
